Earlier results on one molecule are cited in patent US11466400B2, “Finish composition” (Hexcel Corporation, priority 2018, dated 2022).

`O=C(O)CNCC(=O)O` [Iminodiacetic acid]: the pKa (in general, the negative logarithm of the acid dissociation constant) is recorded as 1.873.
